Experimental data: patent publication US9624215B2, “Amine derivative or salt thereof” (TOYAMA CHEMICAL CO., LTD., priority 2012, dated 2017)

What was measured:
[1] = tested on: TNFα production in LPS-stimulated Raw264.7 cells; experiment: TNFα production inhibition test; type: cell-based; settings: Mus musculus, test compound 1 μmol/L, LPS 1 μg/mL, 16 hours, ELISA, read-out: Inhibition rate of TNFα production
Method: 7×10^4 mouse macrophage-derived cell line Raw264.7 cells were suspended in 100 μL of RPMI1640 medium containing 10% fetal bovine serum, plated in a 96-well plate and incubated overnight. The culture supernatant was removed and the test compound diluted in RPMI1640 medium containing 1% fetal bovine serum (final concentration: 1 μmol/L) was added. One hour after the addition, LPS (B4:0111) (Sigma-Aldrich, L2630) was added to a final concentration of 1 μg/mL. 16 hours after the stimulation, the culture supernatant was collected and the amount of TNFα produced in the culture supernatant was determined using ELISA kit (R&D Systems, MTA00B).
The inhibition rate was calculated from the following formula. Inhibition rate (%)=100−(amount of TNFα produced in the presence of test compound/amount of TNFα produced in the absence of test compound)×100

[2] = tested on: normal human neonatal foreskin epidermal keratinocytes (NHEK-F); experiment: Cell proliferation inhibition test; type: cell-based; settings: Keratinocyte, 72 h, NHEK-F cells, three days incubation, ATPlite or CellTiterGlo, read-out: IC50 (concentration of the compound at which the cell count is reduced by 50%)
In short: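 IC50 is the compound level halving cell count relative to untreated wells, with counts from ATP-based luminescence (ATPlite or CellTiterGlo). Readout followed 3 days of compound exposure of overnight-attached neonatal foreskin keratinocytes (2×10^3/well, Humedia-EG2 medium).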

[3] = tested on: TPA-induced ear edema and acanthosis in Balb/c mice; experiment: Mouse TPA-induced ear-swelling model; type: in vivo; settings: topical, 240 h, 1% w/v solution, 20 μL applied to ear once a day from day 0 to day 9, female Balb/c mice, read-out: Inhibition rate of change in ear thickness on day 10
Method: Seven-week-old female Balb/c mice (Charles River Laboratories Japan) were used. 20 μL of a 20 ng/mL solution of TPA (Wako Pure Chemical Industries, 162-23591) dissolved in 5% DMSO/acetone was applied to the outer side of the mouse ear on day 0, day 2, day 4, day 7 and day 9 to induce ear edema and acanthosis. The test compound was dissolved in a 5% DMSO/acetone solution (concentration: 1% w/v) and 20 μL of the resulting solution was applied to the outer side of the ear once a day from day 0 to day 9. For the control group, a 5% DMSO/acetone solution was similarly applied. The TPA solution and the test compound solution were mixed and applied on the days for TPA application (day 0, day 2, day 4, day 7 and day 9). The ear thickness was chronologically measured on days 0-4 and days 7-10 using a micrometer (Mitutoyo, MDC-25MJT). The change in ear thickness and the inhibition rate were determined by the following formulas. Change in ear thickness=(ear thickness measured on day 10)−(ear thickness measured on day 0 before TPA application) Inhibition rate (%)=100−(change in ear thickness for test compound group/change in ear thickness for control group)×100

SMILES | inhibition at 1 µM [1] | IC50 [2] | inhibition in vivo at 1 % strength [3]
N#Cc1ccc(-n2ccc3cc(Nc4ccc(C5CC5)cc4C(=O)O)ccc32)cc1 [Example 106-1, 2-((1-(4-Cyanophenyl)-1H-indol-5-yl)amino)-5-cyclopropylbenzoic acid] | ≥ 50% |  | 
O=C(O)c1cc(Cl)ccc1Nc1ccc2c(c1)CCC(=O)N2Cc1ccccc1 [Example 267, 2-((1-benzyl-2-oxo-1,2,3,4-tetrahydroquinolin-6-yl)amino)-5-chlorobenzoic acid] | ≥ 50% |  | 
O=C(O)c1cc(C2CC2)cnc1Nc1ccc2c(cnn2CC2CCCCC2)c1 [Example 543, 2-((1-(cyclohexylmethyl)-1H-indazol-5-yl)amino)-5-cyclopropylnicotinic acid] |  | ≤ 10 nM | ≥ 20%
CC(C)c1cc(Nc2ncc(C3CC3)cc2C(=O)O)cc2ccn(C)c12 [Example 411, 5-cyclopropyl-2-((7-isopropyl-1-methyl-1H-indol-5-yl)amino)nicotinic acid] |  | 10 to 100 nM | ≥ 20%
O=C(O)c1cc(C2CC2)cnc1Nc1ccc2c(ccn2-c2ccc(F)cc2)c1 [Example 233, 5-cyclopropyl-2-((1-(4-fluorophenyl)-1H-indol-5-yl)amino)nicotinic acid] |  | ≤ 10 nM | ≥ 20%
CC(C)CCn1ccc2cc(Nc3ncc(C4CC4)cc3C(=O)O)ccc21 [Example 448, 5-cyclopropyl-2-(1-isopentyl-1H-indol-5-ylamino)nicotinic acid] |  | ≤ 10 nM | ≥ 20%
O=C(O)c1cc(C2CC2)cnc1Nc1ccc2c(c1)sc(=O)n2CC1CCCCC1 [Example 565, 2-((3-(cyclohexylmethyl)-2-oxo-2,3-dihydro-1,3-benzothiazol-6-yl)amino)-5-cyclopropylnicotinic acid] |  | ≤ 10 nM | ≥ 20%
O=C(O)c1cc(C2CC2)cnc1Nc1ccc2c(ccn2CCc2ccccc2)c1 [Example 619, 5-cyclopropyl-2-((1-(2-phenylethyl)-1H-indol-5-yl)amino)nicotinic acid] |  | ≤ 10 nM | ≥ 20%
O=C(O)c1cc(C2CC2)cnc1Nc1ccc2c(ccn2Cc2ccccc2F)c1 [Example 458, 5-cyclopropyl-2-((1-(2-fluorobenzyl)-1H-indol-5-yl)amino)nicotinic acid] |  | ≤ 10 nM | ≥ 20%
O=C(O)c1cc(C2CC2)cnc1Nc1cccc2c1ccn2CC1CCC1 [Example 439, 2-((1-(cyclobutylmethyl)-1H-indol-4-yl)amino)-5-cyclopropylnicotinic acid] |  | ≤ 10 nM | ≥ 20%
Cc1ccc(Cn2ccc3cc(Nc4ncc(C5CC5)cc4C(=O)O)ccc32)cc1 [Example 457, 5-cyclopropyl-2-((1-(4-methylbenzyl)-1H-indol-5-yl)amino)nicotinic acid] |  | ≤ 10 nM | ≥ 20%
O=C(O)c1cc(C2CC2)cnc1Nc1ccc2c(ccn2Cc2cc(F)cc(F)c2)c1 [Example 497, 5-cyclopropyl-2-((1-(3,5-difluorobenzyl)-1H-indol-5-yl)amino)nicotinic acid] |  | ≤ 10 nM | ≥ 20%
Cn1ccc2cc(Nc3ncc(C4CC4)cc3C(=O)O)cc(CCC3CC3)c21 [Example 470, 5-cyclopropyl-2-((7-(2-cyclopropylethyl)-1-methyl-1H-indol-5-yl)amino)nicotinic acid] |  | ≤ 10 nM | ≥ 20%
Cn1ccc2cc(Nc3ncc(C4CC4)cc3C(=O)O)cc(-c3ccccc3)c21 [Example 222, 5-cyclopropyl-2-((1-methyl-7-phenyl-1H-indol-5-yl)amino)nicotinic acid] |  | ≤ 10 nM | ≥ 20%
CCCCCCn1ccc2cc(Nc3ncc(C4CC4)cc3C(=O)O)ccc21 [Example 639, 5-cyclopropyl-2-((1-hexyl-1H-indol-5-yl)amino)nicotinic acid] |  | ≤ 10 nM | ≥ 20%
O=C(O)c1cc(C2CC2)cnc1Nc1ccc2c(ccn2Cc2ccc(F)cc2)c1 [Example 241, 5-cyclopropyl-2-((1-(4-fluorobenzyl)-1H-indol-5-yl)amino)nicotinic acid] |  | ≤ 10 nM | ≥ 20%

SMILES | inhibition at 1 µM [1] | IC50 [2] | inhibition in vivo at 1 % strength [3]
Cn1ccc2cc(Nc3ncc(C4CC4)cc3C(=O)O)cc(-c3ccccc3C#N)c21 [Example 482, 2-((7-(2-cyanophenyl)-1-methyl-1H-indol-5-yl)amino)-5-cyclopropylnicotinic acid] |  | ≤ 10 nM | ≥ 20%
O=C(O)c1cc(C2CC2)cnc1Nc1ccc2c(ccn2Cc2cccc(F)c2)c1 [Example 239, 5-cyclopropyl-2-((1-(3-fluorobenzyl)-1H-indol-5-yl)amino)nicotinic acid] |  | ≤ 10 nM | ≥ 20%
Cn1cc(-c2ccccc2)c2cc(Nc3ncc(C4CC4)cc3C(=O)O)ccc21 [Example 153] |  | 10 to 100 nM | ≥ 20%
Cn1nccc1-c1cc(Nc2ncc(C3CC3)cc2C(=O)O)cc2ccn(C)c12 [Example 596, 5-cyclopropyl-2-((1-methyl-7-(1-methyl-1H-pyrazol-5-yl)-1H-indol-5-yl)amino)nicotinic acid] |  | ≤ 10 nM | ≥ 20%
CC(C)Cn1ccc2cc(Nc3ncc(C4CC4)cc3C(=O)O)cc(-c3ccccc3)c21 [Example 224, 5-cyclopropyl-2-((1-isobutyl-7-phenyl-1H-indol-5-0)amino)nicotinic acid] |  | ≤ 10 nM | ≥ 20%
Cn1ccc2cc(Nc3ncc(C4CC4)cc3C(=O)O)cc(-c3ccc(F)cc3)c21 [Example 466, 5-cyclopropyl-2-((7-(4-fluorophenyl)-1-methyl-1H-indol-5-yl)amino)nicotinic acid] |  | ≤ 10 nM | ≥ 20%
CCCCCn1ccc2cc(Nc3ncc(C4CC4)cc3C(=O)O)ccc21 [Example 638, 5-cyclopropyl-2-((1-pentyl-1H-indol-5-yl)amino)nicotinic acid] |  | 10 to 100 nM | ≥ 20%
Cc1cccc(Cn2ccc3cc(Nc4ncc(C5CC5)cc4C(=O)O)ccc32)c1 [Example 456, 5-cyclopropyl-2-((1-(3-methylbenzyl)-1H-indol-5-yl)amino)nicotinic acid] |  | ≤ 10 nM | ≥ 20%
Cn1ccc2cc(Nc3ncc(C4CC4)cc3C(=O)O)cc(-c3ccc(F)cc3F)c21 [Example 588, 5-cyclopropyl-2-((7-(2,4-difluorophenyl)-1-methyl-1H-indol-5-yl)amino)nicotinic acid] |  | ≤ 10 nM | ≥ 20%
Cn1ccc2cc(Nc3ncc(C4CC4)cc3C(=O)O)cc(-c3cccc(-c4ccccc4)c3)c21 [Example 189, 2-((7-([1,1′-biphenyl]-3-yl)-1-methyl-1H-indol-5-yl)amino)-5-cyclopropylnicotinic acid] |  | ≤ 10 nM | ≥ 20%
O=C(O)c1cc(C2CC2)cnc1Nc1ccc2c(ccn2CC2CCCCC2)c1 [Example 130, 2-((1-(cyclohexylmethyl)-1H-indol-5-yl)amino)-5-cyclopropylnicotinic acid] |  | ≤ 10 nM | ≥ 20%
Cn1ccc2cc(Nc3ncc(C4CC4)cc3C(=O)O)cc(-c3ccccc3F)c21 [Example 464, 5-cyclopropyl-2-((7-(2-fluorophenyl)-1-methyl-1H-indol-5-yl)amino)nicotinic acid] |  | ≤ 10 nM | ≥ 20%
Cc1ccc(Nc2ccc3c(ccn3Cc3ccccc3)c2)c(C(=O)O)c1 [Example 206, 2-((1-benzyl-1H-indol-5-yl)amino)-5-methylbenzoic acid] |  | ≤ 10 nM | ≥ 20%
O=C(O)c1cc(C2CC2)cnc1Nc1ccc2ccn(CC3CCCCC3)c2c1 [Example 523, 2-((1-(cyclohexylmethyl)-1H-indol-6-yl)amino)-5-cyclopropylnicotinic acid] |  | ≤ 10 nM | ≥ 20%
O=C(O)c1cc(C2CC2)cnc1Nc1ccc2c(ccn2CC2CCC2)c1 [Example 133, 2-((1-(cyclobutylmethyl)-1H-indol-5-yl)amino)-5-cyclopropylnicotinic acid] |  | ≤ 10 nM | ≥ 20%
